{
  "source": "patent US20170143787A1",
  "about": "“CHEMOKINE RECEPTOR ANTAGONIST AND ITS COMBINATIONAL THERAPY” (Pertinax Therapeutics Inc., priority 2014, published 2017)",
  "key": {"[1]": {"test_system": "rat HCC cell line, CRL-1601", "conditions": "12.5 or 25 mg/kg/day s.c. for 4 weeks", "source_text": "The CXCR4 antagonists used was the short peptide dimer antagonist CTCE-9908 (SEQ ID NO.1). A rat orthotopic hepatocellular carcinoma (HCC) model was established by injection of a rat HCC cell line, CRL-1601, into the left lobe of the liver of Buffalo rats. Since the rat HCC cell line was generated from Buffalo rats, in vivo formed tumor in the Buffalo rats can mimic the clinical setting. […]\nThe first group (control) received sham operation followed by water for irrigation. […] The dimension of the primary tumour was measured along with liver function. The microvessel density, proliferation index of tumor cells, apoptotic state and morphology of tumour cells in primary tumour and metastases were analysed by immunohistochemistry. […] The number of metastatic tumour loci was analysed. Plasma SDF-1 was analyzed by ELISA. […]\nThis study examined a rat model of hepatocellular carcinoma (HCC) that mimics transarterial chemoembolization in the clinical setting. […] One week after the last CTCE-9908 treatment, the rats were sacrificed and assessments of the tumor as well as the circulating cells were made by luminescence and flow cytometry, respectively."}, "[2]": {"test_system": "refractory neoplasms (various solid tumors)", "assay": "open label, dose-finding trial (Accelerated Titration Design) in subjects with refractory neoplasms", "type": "in vivo, human", "experimental": "According to the study design, the cohort was to be expanded in the case of moderate toxicity to include more subjects and additional dose increments (40%) until the maximum dose of 5 mg/kg or dose limiting toxicity was achieved.\nSubjects were dosed daily for 4 consecutive weeks (not including weekends and holidays) and dose limiting toxicity was assessed after subjects have completed their treatment.\nToxicity reported during the study was graded according to the National Cancer Institute (NCI) CTCAE (Common Terminology Criteria for Adverse Events) v3.0. A Dose Limiting Toxicity (DLT) was defined as follows: • a) Any grade ≧3 reversible non-haematologic treatment-related toxicity OR • b) Any irreversible grade ≧2 non-haematologic treatment-related toxicity OR • c) Any grade ≧4 haematologic treatment-related toxicity lasting longer than 10 days during the 4 weeks of treatment\nFor the purpose of this study, Moderate Toxicity has been defined according to NCI CTCAE v3.0. Adverse events were treated when they occurred. No investigational or commercial agents or therapies were administered with the intent to treat the subject's malignancy during the period that the subjects were in the study."}},
  "data": [
    {"substance": "KGVSLSYR-X-RYSLSVGK [CTCE-9908]", "values": [
      {"measurement": "tumor regression", "setting": "[1]; CTCE-9908 in combination with hepatic artery ligation (HAL), luminescence and necropsy", "value": "up to 80%"},
      {"measurement": "tolerability", "setting": "[1]; rats", "value": "well tolerated by all rats"},
      {"measurement": "number of Moderate Toxicities observed during the study", "setting": "[2]; NCI CTCAE v3.0, whole study", "value": "eight"},
      {"measurement": "overall stable disease, number of subjects", "setting": "[2]; at the end of their last treatment cycle, 1, 2.5 and 5 mg/kg/day doses", "value": "five"},
      {"measurement": "Dose Limiting Toxicity (DLT)", "setting": "[2]; daily dosing for 4 consecutive weeks, up to 5 mg/kg, NCI CTCAE v3.0", "value": "no DLT was reported"},
      {"measurement": "tumor markers", "setting": "[2]; one ovarian cancer subject and one colorectal cancer subject", "value": "reduction in tumor markers"},
      {"measurement": "duration of stable disease", "setting": "[2]; one small bowel subject", "value": "up to seven"},
      {"measurement": "Maximum Tolerated Dose (MTD)", "setting": "[2]; subjects with refractory neoplasms, up to 5 mg/kg", "value": "not established"}
    ]}
  ]
}
